According to publication PMC8645421 (Computational and Structural Biotechnology Journal, 2021):

How the values were obtained:
Details in all cases: read-out: Km (mM) ^3; 50 mM Britton and Robinson buffer, pH 7.0, 30 °C
[1] = system: T0191; assay: HPAEC-PAD; type: biochemical, uncultured Marinifilaceae bacterium
[2] = system: T0193; assay: HPAEC-PAD; type: biochemical, uncultured Flavobacteriaceae bacterium
[3] = system: T0215; assay: HPAEC-PAD; type: biochemical, uncultured Marinifilaceae bacterium
[4] = system: T0218; assay: pNP release at […] nm; type: biochemical, metagenome
[5] = system: T0220; assay: pNP release at […] nm; type: biochemical, metagenome
[6] = system: T0216; assay: pNP release at […] nm; type: biochemical, uncultured Flavobacteriaceae bacterium
[7] = system: T0217; assay: pNP release at […] nm; type: biochemical, metagenome
[8] = system: T0193; assay: pNP release at […] nm; type: biochemical, uncultured Flavobacteriaceae bacterium
[9] = system: T0191; assay: pNP release at […] nm; type: biochemical, uncultured Marinifilaceae bacterium
[10] = system: T0215; assay: pNP release at […] nm; type: biochemical, uncultured Marinifilaceae bacterium
[11] = system: T0201; assay: pNP release at […] nm; type: biochemical, metagenome
[12] = system: T0199; assay: pNP release at […] nm; type: biochemical, metagenome
[13] = system: T0207; assay: pNP release at […] nm; type: biochemical, Osedax
[14] = system: T0204; assay: pNP release at […] nm; type: biochemical, metagenome

CC(=O)N[C@H]1[C@H]([C@H](O)[C@H](O)CO)O[C@@](O[C@H]2[C@@H](O)[C@@H](CO)O[C@@H](O[C@H]3[C@H](O)[C@@H](O)C(O)O[C@@H]3CO)[C@@H]2O)(C(=O)O)C[C@@H]1O (stereo partly drawn) [3-Sialyllactose] showed a Km [1] of 0.031 ± 0.001 mM and a Km [2] of 0.082 ± 0.06 mM.
Compound CC(=O)N[C@H]1[C@H]([C@H](O)[C@H](O)CO)O[C@@](OC[C@H]2O[C@@H](O[C@H]3[C@H](O)[C@@H](O)C(O)O[C@@H]3CO)[C@H](O)[C@@H](O)[C@H]2O)(C(=O)O)C[C@@H]1O (stereo partly drawn) [6-Sialyllactose] has a Km [1] of 0.053 ± 0.001 mM.
OC[C@H]1O[C@H](O[C@H]2[C@@H](O)[C@@H](CO)OC(O)[C@@H]2O)[C@H](O)[C@@H](O)[C@H]1O (stereo partly drawn) [Galactose-α-1,3-galactose] gave a Km [3] of 0.048 ± 0.009 mM.
For CCCCCCCCCCCCC/C=C/[C@@H](O)[C@@H](N)CO[C@@H]1O[C@H](CO)[C@@H](O[C@@H]2O[C@H](CO)[C@H](O[C@H]3O[C@H](CO)[C@H](O)[C@H](O)[C@H]3O)[C@H](O)[C@H]2O)[C@H](O)[C@H]1O [Globotriaosylsphingosine], the Km [3] was 0.058 ± 0.007 mM.
Compound CC(=O)N[C@H]1[C@H](Oc2ccc([N+](=O)[O-])cc2)O[C@H](CO)[C@H](O)[C@@H]1O [pNP-NAβGal] has a Km [4] of 0.326 ± 0.037 mM.
CC(=O)N[C@H]1[C@H](Oc2ccc([N+](=O)[O-])cc2)O[C@H](CO)[C@@H](O)[C@@H]1O [pNP-NAβGlu] showed a Km [5] of 0.042 ± 0.004 mM, a Km [4] of 0.134 ± 0.015 mM and a Km [6] of 0.025 ± 0.006 mM. For the same compound, the Km [7] was 0.028 ± 0.012 mM.
Compound CC(=O)N[C@H]1[C@H]([C@H](O)[C@H](O)CO)O[C@@](Oc2ccc([N+](=O)[O-])cc2)(C(=O)O)C[C@@H]1O [pNP-Neu5Ac] has a Km [8] of 0.55 ± 0.17 mM and a Km [9] of 0.18 ± 0.03 mM.
Work on O=[N+]([O-])c1ccc(O[C@H]2O[C@H](CO)[C@H](O)[C@H](O)[C@H]2O)cc1 [pNP-αGal] yielded a Km [10] of 0.062 ± 0.008 mM and a Km [11] of 6.22 ± 0.93 mM.
C[C@@H]1O[C@@H](Oc2ccc([N+](=O)[O-])cc2)[C@H](O)[C@H](O)[C@H]1O [pNP-αRham] showed a Km [12] of 1.08 ± 0.15 mM.
C[C@H]1O[C@@H](Oc2ccc([N+](=O)[O-])cc2)[C@H](O)[C@@H](O)[C@H]1O [pNP-β-Fuc] gave a Km [13] of 0.0118 ± 0.003 mM.
O=[N+]([O-])c1ccc(O[C@@H]2O[C@H](CO)[C@H](O)[C@H](O)[C@H]2O)cc1 [pNP-βGal] was tested, and the Km [13] was 0.199 ± 0.032 mM.
O=[N+]([O-])c1ccc(O[C@@H]2O[C@H](CO)[C@@H](O)[C@H](O)[C@@H]2O)cc1 [pNP-βMan] showed a Km [14] of 0.127 ± 0.036 mM.
